Measured values taken from the PolyMetriX glass transition set.
± gives the standard deviation of the reports.

SMILES	glass transition temperature
*Oc1ccccc1C(=O)OC(=O)c1ccccc1OC(=O)CCCCC(*)=O (repeat unit)	55.00 °C
*C[Si](*)(C)CCCN(CC)CC (repeat unit)	-31.7 °C
*Oc1cc(Cl)c(C(C)(C)c2c(Cl)cc(OC(*)=O)cc2Cl)c(Cl)c1 (repeat unit)	240.00 °C
*Oc1ccc(CC(NC(=O)CCc2ccc(OC(=O)COCCOCC(*)=O)cc2)C(=O)OC(C)CC)cc1 (repeat unit)	44.00 °C
*CCCCCCCCN1C(=O)c2ccc(C(=O)c3ccc4c(c3)C(=O)N(*)C4=O)cc2C1=O (repeat unit)	113.00 °C
*Nc1cccc(NC(=O)Cc2cc(C)c(CC(*)=O)cc2C)c1 (repeat unit)	249.00 °C
*/C=C(/*)CCCOc1ccc(OC(=O)c2ccc(OCCCC)cc2)cc1 (repeat unit)	36.00 °C
*O[Si](*)(C)CCCCCCCCCCCOC(=O)c1cc(OC(=O)c2ccc(OCCOCCOCCOCCOCCOCCOCCOCCOC)cc2)ccc1OC(=O)c1ccc(OCCOCCOCCOCCOCCOCCOCCOCCOC)cc1 (repeat unit)	-56.00 °C
*CC(*)CNc1ccc([N+](=O)[O-])cc1 (repeat unit)	144.00 °C
*c1cc(C(=O)OCCCC)cc(N2C(=O)CC(C3Cc4ccccc4C4C(=O)N(*)C(=O)C43)C2=O)c1 (repeat unit)	219.00 °C
*/C=C/c1cccc(/C=C/[Si](C)(CCC(F)(F)F)c2ccc([Si](*)(C)CCC(F)(F)F)cc2)c1 (repeat unit)	34.50 °C
*CCCCCOC(=O)c1ccccc1C(=O)[O][Cd][O]C(=O)c1ccccc1C(=O)OCCCCCOC(=O)Nc1ccc(C)c(NC(=O)O*)c1 (repeat unit)	2.30 °C
*c1ccc(C(=O)OCCCCCCCCCCOC(=O)c2ccc(-c3nnc(*)s3)cc2)cc1 (repeat unit)	79.00 °C
*CNC(=O)OC(c1ccco1)C(OC(=O)NCc1ccc(C(C)(C)c2ccc(*)o2)o1)c1ccco1 (repeat unit)	45.00 °C
*CC(*)(C)C(=O)OCCCCCCCCCCOc1ccc(C(=O)Oc2ccc(C(=O)/C=C/c3c(C)c4ccccc4n3CCCC)cc2)cc1 (repeat unit)	57.00 °C
*CCCCCCCCCNC(=O)c1ccc(C(=O)N*)cc1 (repeat unit)	115.00 °C
*CCCCCCCCCCCOC(=O)c1ccc(-c2ccc(C(=O)O*)cc2)cc1 (repeat unit)	49.00 °C
*CCN(*)C(=O)CC12CC3CC(CC(C3)C1)C2 (repeat unit)	139.00 °C

SMILES	glass transition temperature
*/C=C/c1cc(OCCc2ccccc2)c(*)cc1OC (repeat unit)	121.00 °C
*c1c(C)cc(C)c(N2C(=O)c3ccc(Sc4ccc5c(c4)C(=O)N(*)C5=O)cc3C2=O)c1C (repeat unit)	378.00 °C
*CCCC(*)(C)C(=O)O (repeat unit)	132.00 °C
*CC(C)C(=O)N* (repeat unit)	96.00 °C
*CC(*)C(=O)OCCCSCCC#N (repeat unit)	-58.00 °C
*CCCC(C)(C)CNC(=O)C(=O)N* (repeat unit)	109.00 °C
*CC(*)(C)C(=O)OCCCCCc1ccc(/N=N/c2ccc(OC(F)(F)F)cc2)cc1 (repeat unit)	202.50 °C
*[Si](*)(CCCC)CCCCCC (repeat unit)	-40.00 °C
*CC(*)(C)C(=O)OC(OCC)C(F)(F)F (repeat unit)	60.00 °C
*CCC/C=C(/*)c1ccccc1 (repeat unit)	0.00 °C
*CCOP(=O)(/N=N/c1ccc(COC(=O)c2cc(C(=O)OCc3ccc(/N=N/P(=O)(O*)OC)cc3)cc(C(C)(C)C)c2)cc1)OC (repeat unit)	105.00 °C
*CC(*)(C)C(=O)OCCCCCC(=O)Oc1ccc(OC(=O)c2ccc(OCCC)cc2)cc1 (repeat unit)	45.00 °C
*Oc1ccc(C(C)(C)c2ccc(OC(=O)c3ccc(CC(*)=O)cc3)cc2)cc1 (repeat unit)	85.00 °C
*COC(=O)Nc1ccc(Cc2ccc(NC(=O)OCc3cocc3*)cc2)cc1 (repeat unit)	45.00 °C
*CC(*)c1ccccc1C(=O)O (repeat unit)	177.00 °C
*CCCCCCOC(=O)NCc1ccc(CNC(=O)O*)cc1 (repeat unit)	56.00 °C
*CC1CC(COC(=O)c2ccc(C(=O)O*)cc2)CC(C(C)(C)C)C1 (repeat unit)	118.00 °C
*CCCNC(=O)C(Cc1ccccc1)NC(=O)CCCCCCCCC(=O)NC(Cc1ccccc1)C(=O)NCCCOCCOCCO* (repeat unit)	44.00 °C

More lines, now with the values ahead:

glass transition temperature	SMILES
275.00 °C	*c1ccc(Oc2cccc(NC(=O)c3cc(C(=O)Nc4cccc(Oc5ccc(-c6nnc(*)o6)cc5)c4)cc(N4C(=O)c5c(Cl)c(Cl)c(Cl)c(Cl)c5C4=O)c3)c2)cc1 (repeat unit)
242.20 °C	*Oc1ccc(S(=O)(=O)c2ccc(Oc3ccc(-c4ccc(*)cc4)cc3)cc2N)c(N)c1 (repeat unit)
310.00 °C	*c1ccc2c(c1)C(=O)N(c1ccc(C(C)(C)c3ccc(N4C(=O)c5ccc(C(*)(C(F)(F)F)C(F)(F)F)cc5C4=O)cc3)cc1)C2=O (repeat unit)
95.00 °C	*O[Si](C)(Oc1ccc(*)cc1)c1ccccc1 (repeat unit)
215.00 °C	*CCCCCCc1ccc(-c2c(-c3ccccc3)cc(-c3cccc(-c4cc(-c5ccccc5)c(-c5ccc(*)cc5)c(-c5ccccc5)c4-c4ccccc4)c3)c(-c3ccccc3)c2-c2ccccc2)cc1 (repeat unit)
119.00 °C	*Oc1ccc(Oc2ccc(Oc3cccc(C(=O)Oc4ccc(-c5ccc(OC(=O)c6cccc(*)c6)cc5)cc4)c3)cc2)cc1 (repeat unit)
400.00 °C	*c1ccc(-c2nc3ccc(-c4ccc5nc(*)c(-c6ccccc6)c(-c6ccccc6)c5c4)cc3c(-c3ccccc3)c2-c2ccccc2)cc1 (repeat unit)
22.00 °C	*CC[CH2][Sn]([CH3])([CH3])[CH2]CCOC(=O)C(CCCCCCCCOc1ccc(-c2ccc(OCc3ccc(C#N)cc3)cc2)cc1)C(=O)O* (repeat unit)
41.00 °C	*CCCCCOC(=O)CCCCCCCCCCN1C(=O)c2ccc(-c3ccc(-c4ccc5c(c4)C(=O)N(CCCCCCCCCCC(=O)OCCCCCN4C(=O)c6ccc(-c7ccc8c(c7)C(=O)N(*)C8=O)cc6C4=O)C5=O)cc3)cc2C1=O (repeat unit)
238.00 °C	*c1nnc(-c2ccc(Oc3ccc(/C=C/c4ccc(Oc5ccc(*)c6ccccc56)cc4)cc3)c3ccccc23)o1 (repeat unit)
162.00 °C	*Oc1ccc(C(c2ccc(Oc3ccc(C(=O)C(=O)c4ccc(*)cc4)cc3)cc2)(C(F)(F)F)C(F)(F)F)cc1 (repeat unit)
310.00 °C	*c1ccc(C2(c3ccc(-c4cc(-c5ccccc5)c5cc(Oc6ccc7nc(*)cc(-c8ccccc8)c7c6)ccc5n4)cc3)c3ccccc3-c3ccccc32)cc1 (repeat unit)
165.00 °C	*Oc1ccc2ccc(Oc3ccc(/C(=N/c4ccc(Oc5ccc(/N=C(\c6ccccc6)c6ccc(*)cc6)cc5)cc4)c4ccccc4)cc3)cc2c1 (repeat unit)
283.00 °C	*c1ccc(Oc2ccc3ccccc3c2-c2c(Oc3ccc(N4C(=O)c5ccc(NC(=O)Nc6cccc(NC(=O)Nc7ccc8c(c7)C(=O)N(*)C8=O)n6)cc5C4=O)cc3)ccc3ccccc23)cc1 (repeat unit)
301.00 °C	*c1ccc2oc(-c3cccc(-c4nc5cc(C(*)(C(F)(F)F)C(F)(F)F)ccc5o4)c3)nc2c1 (repeat unit)
79.00 °C	*c1ccc(-c2cc(-c3ccc(OCCCCCCCCCCCC)cc3)cc(-c3ccc(-c4ccc5c(c4)C(CCCCCC)(CCCCCC)c4cc(*)ccc4-5)cc3)c2-c2ccc(OCCCCCCCCCCCC)cc2)cc1 (repeat unit)
400.00 °C	*c1ccc(Sc2ccc(-n3c(=O)c4cc5c(=O)n(*)c(=O)c5cc4c3=O)cc2)cc1 (repeat unit)
279.00 °C	*c1nc(-c2ccccc2)nc(N(c2ccccc2)c2ncnc(N(*)c3ccccc3)n2)n1 (repeat unit)
370.00 °C	*c1ccc(Oc2ccc(N3C(=O)c4cc(-c5ccc(C(C)(C)C)cc5)c(-c5cc6c(cc5-c5ccc(C(C)(C)C)cc5)C(=O)N(*)C6=O)cc4C3=O)cc2)cc1 (repeat unit)
369.2 ± 6.7 °C	*c1ccc(-c2ccc(-n3c(=O)c4cc5c(=O)n(*)c(=O)c5cc4c3=O)cc2C)c(C)c1 (repeat unit)
124.00 °C	*C(=O)c1ccc(Oc2ccc(C(C)(C)c3ccc(Oc4ccc(*)s4)cc3)cc2)s1 (repeat unit)
216.00 °C	*C(=O)c1ccc(-c2ccc(C(C)(C)c3ccc(-c4ccc(C(=O)c5ccc6c(c5)C(=O)N(c5ccc(Cc7ccc(N8C(=O)c9ccc(*)cc9C8=O)cc7)cc5)C6=O)cc4)cc3)cc2)cc1 (repeat unit)
194.00 °C	*c1ccc(Oc2cccc(Oc3ccc(N4C(=O)c5ccc(Oc6ccc(C(=O)c7ccc(Oc8ccc9c(c8)C(=O)N(*)C9=O)cc7)cc6)cc5C4=O)cc3)c2)cc1 (repeat unit)
226.00 °C	*c1ccc(Oc2ccc(C(c3ccc(Oc4ccc(-c5nnc(*)n5-c5ccc(S(C)(=O)=O)cc5)cc4)cc3)(C(F)(F)F)C(F)(F)F)cc2)cc1 (repeat unit)
204.00 °C	*c1ccc(Oc2ccc(-c3ccc(Oc4ccc(N5C(=O)c6ccc(Oc7ccccc7Oc7ccc8c(c7)C(=O)N(*)C8=O)cc6C5=O)cc4)cc3)cc2)cc1 (repeat unit)
159.00 °C	*Cc1cccc(CNC(=O)c2ccccc2-c2ccccc2C(=O)N*)c1 (repeat unit)
253.00 °C	*c1ccc(C(=O)c2ccc(Oc3ccc(-c4nn(*)c(=O)c5ccccc45)c(F)c3)cc2)cc1 (repeat unit)
223.00 °C	*c1ccc(Oc2ccc(-c3cnnc(-c4cccc(-c5ncc(*)nn5)n4)n3)cc2)cc1 (repeat unit)
